{"source": "ChEMBL document CHEMBL5653631", "about": "“A Potent and Selective ULK1 Inhibitor Suppresses Autophagy and Sensitizes Cancer Cells to Nutrient Stress” (iScience, 2018)", "key": {"[1]": {"biological_target": "Dual specificity tyrosine-phosphorylation-regulated kinase 1B (Homo sapiens) (UniProt Q9Y463)", "sequence (Q9Y463 whole entry, looked up)": "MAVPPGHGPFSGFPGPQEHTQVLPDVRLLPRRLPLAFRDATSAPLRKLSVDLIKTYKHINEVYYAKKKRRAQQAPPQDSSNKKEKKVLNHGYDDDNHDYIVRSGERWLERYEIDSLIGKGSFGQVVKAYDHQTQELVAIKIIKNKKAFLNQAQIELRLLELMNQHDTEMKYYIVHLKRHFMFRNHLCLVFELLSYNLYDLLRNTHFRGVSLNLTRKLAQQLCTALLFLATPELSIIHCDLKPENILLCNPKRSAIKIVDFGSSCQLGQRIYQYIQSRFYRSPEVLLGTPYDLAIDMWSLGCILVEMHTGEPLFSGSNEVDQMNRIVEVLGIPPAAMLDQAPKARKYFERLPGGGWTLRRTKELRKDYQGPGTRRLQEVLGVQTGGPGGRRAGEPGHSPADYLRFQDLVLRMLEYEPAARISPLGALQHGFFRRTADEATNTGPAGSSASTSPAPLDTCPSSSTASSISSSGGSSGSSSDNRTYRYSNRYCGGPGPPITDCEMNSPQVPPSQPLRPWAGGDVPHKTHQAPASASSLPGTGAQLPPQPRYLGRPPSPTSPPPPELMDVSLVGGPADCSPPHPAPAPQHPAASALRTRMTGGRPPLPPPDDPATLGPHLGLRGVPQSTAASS", "experiment": "Inhibition of human recombinant DYRK1B at 500 nM in presence of ATP by radiometric assay relative to control"}, "[2]": {"biological_target": "T1, Mitogen-activated protein kinase kinase kinase 7 (Homo sapiens) (UniProt O43318)", "T1 sequence (whole entry)": "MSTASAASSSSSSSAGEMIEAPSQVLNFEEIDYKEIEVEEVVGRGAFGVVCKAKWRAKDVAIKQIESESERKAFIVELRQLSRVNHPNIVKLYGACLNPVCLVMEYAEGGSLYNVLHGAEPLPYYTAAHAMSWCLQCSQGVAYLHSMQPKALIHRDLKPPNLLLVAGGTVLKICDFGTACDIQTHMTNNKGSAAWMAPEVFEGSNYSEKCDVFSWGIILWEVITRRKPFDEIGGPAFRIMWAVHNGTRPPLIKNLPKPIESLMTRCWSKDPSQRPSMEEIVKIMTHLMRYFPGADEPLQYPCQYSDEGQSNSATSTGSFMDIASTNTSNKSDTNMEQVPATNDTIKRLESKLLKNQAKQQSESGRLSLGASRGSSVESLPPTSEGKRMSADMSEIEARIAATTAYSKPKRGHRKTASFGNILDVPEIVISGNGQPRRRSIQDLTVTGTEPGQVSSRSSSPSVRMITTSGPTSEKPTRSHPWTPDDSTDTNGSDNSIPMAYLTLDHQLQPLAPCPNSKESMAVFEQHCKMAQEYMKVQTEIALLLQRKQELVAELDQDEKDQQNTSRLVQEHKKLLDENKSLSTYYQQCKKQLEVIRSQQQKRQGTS", "experiment": "Inhibition of human recombinant TAK1 at 500 nM in presence of ATP by radiometric assay relative to control"}, "[3]": {"biological_target": "Calcium/calmodulin-dependent protein kinase type II subunit delta (Homo sapiens) (UniProt Q13557)", "sequence (Q13557 whole entry)": "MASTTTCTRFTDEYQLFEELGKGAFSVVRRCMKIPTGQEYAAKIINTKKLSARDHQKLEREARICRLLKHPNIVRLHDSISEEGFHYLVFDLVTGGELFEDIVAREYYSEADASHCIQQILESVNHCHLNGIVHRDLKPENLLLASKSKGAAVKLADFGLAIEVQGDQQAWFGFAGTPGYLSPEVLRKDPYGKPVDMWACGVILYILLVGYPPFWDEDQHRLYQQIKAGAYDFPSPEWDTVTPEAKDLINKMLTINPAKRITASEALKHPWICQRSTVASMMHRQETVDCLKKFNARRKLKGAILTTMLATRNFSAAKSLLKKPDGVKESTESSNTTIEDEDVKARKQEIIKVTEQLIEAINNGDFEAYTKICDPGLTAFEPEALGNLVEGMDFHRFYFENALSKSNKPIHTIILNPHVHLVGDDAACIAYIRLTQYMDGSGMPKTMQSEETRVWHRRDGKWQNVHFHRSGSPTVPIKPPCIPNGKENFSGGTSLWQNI", "experiment": "Inhibition of human recombinant CaMK2d at 500 nM in presence of ATP by radiometric assay relative to control"}, "[4]": {"biological_target": "T2, Serine/threonine-protein kinase DCLK2 (Homo sapiens) (UniProt Q8N568)", "T2 sequence (whole entry)": "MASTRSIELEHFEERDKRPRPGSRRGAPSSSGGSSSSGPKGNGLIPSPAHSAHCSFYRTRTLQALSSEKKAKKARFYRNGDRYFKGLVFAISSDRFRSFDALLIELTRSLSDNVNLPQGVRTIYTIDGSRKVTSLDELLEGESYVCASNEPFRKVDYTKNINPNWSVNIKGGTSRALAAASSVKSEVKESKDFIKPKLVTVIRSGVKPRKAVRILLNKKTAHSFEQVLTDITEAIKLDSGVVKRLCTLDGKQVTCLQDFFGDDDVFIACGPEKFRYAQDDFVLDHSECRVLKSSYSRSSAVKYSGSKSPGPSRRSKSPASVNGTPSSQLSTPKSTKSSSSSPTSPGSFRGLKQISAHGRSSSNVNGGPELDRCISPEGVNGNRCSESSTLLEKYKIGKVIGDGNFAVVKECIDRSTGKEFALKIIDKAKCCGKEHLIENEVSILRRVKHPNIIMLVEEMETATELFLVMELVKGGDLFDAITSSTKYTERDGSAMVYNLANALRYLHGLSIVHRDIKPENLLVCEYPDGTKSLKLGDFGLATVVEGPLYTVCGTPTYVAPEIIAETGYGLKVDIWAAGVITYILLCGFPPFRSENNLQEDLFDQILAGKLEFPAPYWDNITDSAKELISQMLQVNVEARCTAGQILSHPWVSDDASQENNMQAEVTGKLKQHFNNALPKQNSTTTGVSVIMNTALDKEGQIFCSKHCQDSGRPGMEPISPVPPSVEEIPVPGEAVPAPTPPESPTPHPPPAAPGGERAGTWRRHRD", "experiment": "Inhibition of human recombinant DCAMKL2 at 15 nM in presence of ATP by radiometric assay relative to control"}, "[5]": {"biological_target": "Platelet-derived growth factor receptor beta (Homo sapiens) (UniProt P09619)", "sequence (P09619 whole entry)": "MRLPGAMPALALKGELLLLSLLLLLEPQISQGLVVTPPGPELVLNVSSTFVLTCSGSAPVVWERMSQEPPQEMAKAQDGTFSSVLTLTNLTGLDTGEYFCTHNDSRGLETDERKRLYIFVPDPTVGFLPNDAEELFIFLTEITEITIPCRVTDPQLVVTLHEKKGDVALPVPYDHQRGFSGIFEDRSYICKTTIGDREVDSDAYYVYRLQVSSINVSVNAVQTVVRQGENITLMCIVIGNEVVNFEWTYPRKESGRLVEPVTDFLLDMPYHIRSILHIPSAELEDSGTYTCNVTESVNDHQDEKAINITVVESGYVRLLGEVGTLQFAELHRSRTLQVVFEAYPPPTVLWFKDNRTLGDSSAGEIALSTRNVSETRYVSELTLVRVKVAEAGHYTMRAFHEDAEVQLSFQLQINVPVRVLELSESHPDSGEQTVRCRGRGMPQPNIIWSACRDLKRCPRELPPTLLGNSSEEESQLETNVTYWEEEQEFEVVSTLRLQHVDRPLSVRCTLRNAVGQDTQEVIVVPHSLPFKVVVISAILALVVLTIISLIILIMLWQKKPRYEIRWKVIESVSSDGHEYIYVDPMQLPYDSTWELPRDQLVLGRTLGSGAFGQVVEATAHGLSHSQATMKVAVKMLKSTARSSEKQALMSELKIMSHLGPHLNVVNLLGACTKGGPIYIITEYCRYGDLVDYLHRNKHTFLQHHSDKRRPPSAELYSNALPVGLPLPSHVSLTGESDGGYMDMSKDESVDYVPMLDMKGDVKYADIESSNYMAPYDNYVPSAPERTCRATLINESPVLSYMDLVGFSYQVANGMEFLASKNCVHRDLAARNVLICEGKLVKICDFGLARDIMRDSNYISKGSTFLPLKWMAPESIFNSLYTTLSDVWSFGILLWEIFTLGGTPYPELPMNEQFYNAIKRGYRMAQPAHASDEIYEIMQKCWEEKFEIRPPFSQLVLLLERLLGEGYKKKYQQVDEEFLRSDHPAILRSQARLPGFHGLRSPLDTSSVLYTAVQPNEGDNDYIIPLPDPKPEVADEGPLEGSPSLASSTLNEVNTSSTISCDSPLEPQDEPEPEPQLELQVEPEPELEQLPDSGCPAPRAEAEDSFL", "experiment": "Inhibition of human recombinant PDGFRb at 15 nM related to control ULK1"}, "[6]": {"biological_target": "Cyclin-dependent kinase-like 1 (Homo sapiens) (UniProt Q00532)", "sequence (Q00532 whole entry)": "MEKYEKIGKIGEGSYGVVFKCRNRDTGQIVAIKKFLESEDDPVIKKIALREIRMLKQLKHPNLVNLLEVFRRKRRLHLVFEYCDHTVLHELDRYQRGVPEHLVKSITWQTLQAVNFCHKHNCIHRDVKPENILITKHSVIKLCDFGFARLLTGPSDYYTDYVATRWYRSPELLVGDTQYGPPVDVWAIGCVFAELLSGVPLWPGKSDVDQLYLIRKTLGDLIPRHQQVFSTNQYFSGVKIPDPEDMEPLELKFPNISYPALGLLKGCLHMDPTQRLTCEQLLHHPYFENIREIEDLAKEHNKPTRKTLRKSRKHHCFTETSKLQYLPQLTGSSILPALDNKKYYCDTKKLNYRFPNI", "experiment": "Inhibition of human recombinant CDKL1 at 15 nM in presence of ATP by radiometric assay relative to control"}, "[7]": {"biological_target": "Cyclin-dependent kinase 18 (Homo sapiens) (UniProt Q07002)", "sequence (Q07002 whole entry)": "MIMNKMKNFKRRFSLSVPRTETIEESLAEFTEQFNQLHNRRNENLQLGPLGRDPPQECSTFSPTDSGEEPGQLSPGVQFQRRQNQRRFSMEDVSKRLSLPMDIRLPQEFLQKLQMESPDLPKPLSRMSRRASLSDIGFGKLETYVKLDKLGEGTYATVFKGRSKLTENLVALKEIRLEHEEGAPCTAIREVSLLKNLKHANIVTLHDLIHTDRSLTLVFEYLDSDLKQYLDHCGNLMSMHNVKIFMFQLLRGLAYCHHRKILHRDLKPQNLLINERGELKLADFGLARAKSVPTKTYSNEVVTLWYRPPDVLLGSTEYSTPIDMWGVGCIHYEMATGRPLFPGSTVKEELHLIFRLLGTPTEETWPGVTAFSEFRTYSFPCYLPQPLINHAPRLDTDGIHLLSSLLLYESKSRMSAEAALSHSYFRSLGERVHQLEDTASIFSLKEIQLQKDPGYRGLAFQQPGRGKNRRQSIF", "experiment": "Inhibition of human recombinant PCTAIRE3 at 15 nM related to control ULK1"}, "[8]": {"biological_target": "Cyclin-dependent kinase 6 (Homo sapiens) (UniProt Q00534)", "sequence (Q00534 whole entry)": "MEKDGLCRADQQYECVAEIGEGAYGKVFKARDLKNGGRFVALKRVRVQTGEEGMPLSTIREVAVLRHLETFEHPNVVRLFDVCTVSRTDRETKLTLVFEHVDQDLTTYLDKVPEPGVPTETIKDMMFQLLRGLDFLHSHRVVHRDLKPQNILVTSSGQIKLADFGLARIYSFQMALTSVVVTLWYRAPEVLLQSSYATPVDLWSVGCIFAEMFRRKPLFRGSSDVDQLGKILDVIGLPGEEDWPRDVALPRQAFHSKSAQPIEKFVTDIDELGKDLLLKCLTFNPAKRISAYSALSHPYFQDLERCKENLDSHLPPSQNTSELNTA", "experiment": "Inhibition of human recombinant CDK6 at 40 nM in presence of ATP by radiometric assay relative to control"}, "[9]": {"biological_target": "Tyrosine-protein kinase Lck (Homo sapiens) (UniProt P06239)", "sequence (P06239 2-509 limits assumed)": "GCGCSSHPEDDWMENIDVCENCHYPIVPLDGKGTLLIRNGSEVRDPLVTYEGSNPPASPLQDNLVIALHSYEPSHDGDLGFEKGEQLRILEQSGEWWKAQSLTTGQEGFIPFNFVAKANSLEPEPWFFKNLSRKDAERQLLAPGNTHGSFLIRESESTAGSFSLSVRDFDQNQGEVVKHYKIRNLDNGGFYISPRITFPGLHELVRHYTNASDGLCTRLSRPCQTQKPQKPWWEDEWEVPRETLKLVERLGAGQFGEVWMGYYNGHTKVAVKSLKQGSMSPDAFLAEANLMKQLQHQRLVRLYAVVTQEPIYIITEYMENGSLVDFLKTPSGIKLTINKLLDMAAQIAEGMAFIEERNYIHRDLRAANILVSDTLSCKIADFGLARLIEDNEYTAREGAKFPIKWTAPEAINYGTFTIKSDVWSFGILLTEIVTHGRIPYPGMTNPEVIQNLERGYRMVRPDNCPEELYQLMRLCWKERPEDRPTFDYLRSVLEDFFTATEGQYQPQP", "experiment": "Inhibition of human recombinant LCK at 40 nM related to control ULK1"}}}
{"compound": "CNC(=O)c1ccccc1Oc1nc(Nc2cc(OC)c(OC)c(OC)c2)ncc1Br", "values": [{"measurement": "inhibition", "setting": "[1]", "value": 0, "unit": "%"}, {"measurement": "inhibition", "setting": "[2]", "value": 2, "unit": "%"}, {"measurement": "inhibition", "setting": "[3]", "value": 9, "unit": "%"}]}
{"compound": "CC(C)[C@H](NC(=O)c1cc(-c2cnn3cc(-c4ccc(OCCN5CCCCC5)cc4)cnc23)cs1)C(F)(F)F", "values": [{"measurement": "inhibition", "setting": "[4]", "value": 12, "unit": "%"}, {"measurement": "fold change (FC)", "setting": "[5]", "value": 0}, {"measurement": "inhibition", "setting": "[6]", "value": 24, "unit": "%"}, {"measurement": "fold change (FC)", "setting": "[7]", "value": 0.76}]}
{"compound": "O=C(N[C@@H](C1CC1)C(F)(F)F)c1cc(-c2cnn3cc(-c4ccc(F)cc4)cnc23)cs1", "values": [{"measurement": "inhibition", "setting": "[8]", "value": 3, "unit": "%"}, {"measurement": "fold change (FC)", "setting": "[9]", "value": 0}]}
